Measurements published in patent publication US7262199B2, “Tyrosine kinase inhibitors” (Merck & Co., Inc., priority 2002, dated 2007).

melting point: 147 to 149 °C
SMILES: c1ccc(-c2cnn3cc(-c4ccc(CCCN5CCOCC5)cc4)cnc23)cc1 [Compound 2-6, 6-[4-(3-morpholin-4-ylpropyl)phenyl]-3-phenylpyrazolo[1,5-a]pyrimidine]
